Test results as given in ChEMBL document CHEMBL5506005, “Biochemical and structural characterization of chlorhexidine as an ATP-assisted inhibitor against type 1 methionyl-tRNA synthetase from Gram-positive bacteria” (Eur J Med Chem, 2024).

Assays:
[1] = biological target: Methionine--tRNA ligase (Staphylococcus aureus (strain Mu50 / ATCC 700699)) (UniProt P67578); assay: Binding affinity to Staphylococcus aureus MetRS expressed in Escherichia coli BL21(DE3) cells assessed as change in melting temperature at 100 uM incubated for 10 mins followed by heat treatment in presence of 2 mM ATP by SYPRO orange dye based TSA (reference value: 56.4 degreeC)
[2] = biological target: Methionine--tRNA ligase (Staphylococcus aureus (strain Mu50 / ATCC 700699)) (UniProt P67578); assay: Inhibition of Staphylococcus aureus MetRS expressed in Escherichia coli BL21(DE3) cells at 100 uM measured after 2.5 hrs in presence of ATP by pre-transfer editing assay relative to control
[3] = biological target: Methionine--tRNA ligase (Staphylococcus aureus (strain Mu50 / ATCC 700699)) (UniProt P67578); assay: Binding affinity to Staphylococcus aureus MetRS expressed in Escherichia coli BL21(DE3) cells assessed as change in melting temperature at 100 uM incubated for 10 mins followed by heat treatment by SYPRO orange dye based TSA (reference value: 53.7 degreeC)
[4] = biological target: T1, Methionine--tRNA ligase (Staphylococcus aureus (strain Mu50 / ATCC 700699), UniProt P67578); assay: Binding affinity to Staphylococcus aureus MetRS expressed in Escherichia coli BL21(DE3) cells assessed as dissociation constant in presence of 1 mM AMP by ITC analysis
[5] = biological target: T1, Methionine--tRNA ligase; assay: Binding affinity to Staphylococcus aureus MetRS expressed in Escherichia coli BL21(DE3) cells assessed as dissociation constant in presence of 1 mM ADP by ITC analysis
[6] = biological target: T2, Methionine--tRNA ligase (Enterococcus faecalis, UniProt A0A3N3ZFK4); assay: Inhibition of Enterococcus faecalis type 1 MetRS expressed in Escherichia coli BL21(DE3) cells measured after 1.5 hrs in presence of ATP by pre-transfer editing assay
[7] = biological target: T1, Methionine--tRNA ligase; assay: Inhibition of Staphylococcus aureus MetRS expressed in Escherichia coli BL21(DE3) cells measured after 2.5 hrs in presence of ATP by pre-transfer editing assay
[8] = biological target: T2, Methionine--tRNA ligase; assay: Binding affinity to Enterococcus faecalis type 1 MetRS expressed in Escherichia coli BL21(DE3) cells assessed as dissociation constant in presence of 1 mM ATP by ITC analysis
[9] = biological target: T1, Methionine--tRNA ligase; assay: Binding affinity to Staphylococcus aureus MetRS expressed in Escherichia coli BL21(DE3) cells assessed as dissociation constant in presence of 20 uM ATP by ITC analysis
[10] = biological target: T1, Methionine--tRNA ligase; assay: Binding affinity to Staphylococcus aureus MetRS expressed in Escherichia coli BL21(DE3) cells assessed as dissociation constant in presence of 50 uM ATP by ITC analysis
[11] = biological target: T1, Methionine--tRNA ligase; assay: Binding affinity to Staphylococcus aureus MetRS expressed in Escherichia coli BL21(DE3) cells assessed as dissociation constant in presence of 1 mM ATP by ITC analysis
[12] = biological target: T1, Methionine--tRNA ligase; assay: Binding affinity to Staphylococcus aureus MetRS expressed in Escherichia coli BL21(DE3) cells assessed as dissociation constant in presence of ATP/L-Met by ITC analysis
[13] = biological target: T2, Methionine--tRNA ligase; assay: Binding affinity to Enterococcus faecalis type 1 MetRS expressed in Escherichia coli BL21(DE3) cells assessed as dissociation constant by ITC analysis
[14] = biological target: T1, Methionine--tRNA ligase; assay: Binding affinity to Staphylococcus aureus MetRS expressed in Escherichia coli BL21(DE3) cells assessed as dissociation constant by ITC analysis
[15] = biological target: T1, Methionine--tRNA ligase; assay: Binding affinity to Staphylococcus aureus MetRS expressed in Escherichia coli BL21(DE3) cells assessed as dissociation constant in presence of 500 uM ATP by ITC analysis

T2 sequence (A0A3N3ZFK4 whole entry): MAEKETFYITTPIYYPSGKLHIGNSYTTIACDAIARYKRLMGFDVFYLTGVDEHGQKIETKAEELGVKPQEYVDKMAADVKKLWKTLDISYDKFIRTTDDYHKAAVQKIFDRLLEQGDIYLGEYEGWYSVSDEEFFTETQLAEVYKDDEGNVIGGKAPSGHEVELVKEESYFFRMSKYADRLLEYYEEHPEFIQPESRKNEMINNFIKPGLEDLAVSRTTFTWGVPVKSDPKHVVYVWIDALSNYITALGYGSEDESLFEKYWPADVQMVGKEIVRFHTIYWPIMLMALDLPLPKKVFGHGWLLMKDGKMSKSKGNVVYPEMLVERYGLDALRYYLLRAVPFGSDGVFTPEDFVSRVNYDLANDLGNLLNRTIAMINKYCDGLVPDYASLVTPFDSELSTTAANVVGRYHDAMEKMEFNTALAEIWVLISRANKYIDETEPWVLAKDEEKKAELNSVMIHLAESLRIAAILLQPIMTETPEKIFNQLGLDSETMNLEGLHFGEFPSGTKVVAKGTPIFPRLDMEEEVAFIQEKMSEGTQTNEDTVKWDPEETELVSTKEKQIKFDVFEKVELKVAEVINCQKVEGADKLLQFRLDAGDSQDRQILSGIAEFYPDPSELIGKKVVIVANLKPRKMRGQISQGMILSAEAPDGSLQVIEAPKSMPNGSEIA

| ΔTm [1] | inhibition [2] | ΔTm [3] | Kd [4] | Kd [5] | IC50 [6] | IC50 [7] | Kd [8] | Kd [9] | Kd [10] | Kd [11] | Kd [12] | Kd [13] | Kd [14] | Kd [15] | Compound |
| --- | --- | --- | --- | --- | --- | --- | --- | --- | --- | --- | --- | --- | --- | --- | --- |
| 1 °C | < 20% | 1.2 °C |  |  |  |  |  |  |  |  |  |  |  |  | VITAMIN E |
| 1.1 °C | < 20% | -0.1 °C |  |  |  |  |  |  |  |  |  |  |  |  | CCN(CC)CCCC(C)Nc1ccnc2cc(Cl)ccc12 (stereo unspecified) |
| 20.3 °C | > 99% | 16.2 °C |  |  |  |  |  |  |  |  |  |  |  |  | C=C(F)c1sc(CNCCCNc2cc(=O)c3ccccc3[nH]2)c(C)c1Br |
|  |  |  | 0.006 µM | 1.9 µM | 8.5 µM | 30.8 µM | 0.3 µM | 3.1 µM | 1.21 µM | 0.45 µM | 4.19 µM | 5.04 µM | 10.2 µM | 0.593 µM | [H]/N=C(\N/C(=N/[H])NCCCCCCNC(=N)NC(=N)Nc1ccc(Cl)cc1)Nc1ccc(Cl)cc1 [CHLORHEXIDINE] |
